Experimental data published in patent US10343992B2, “1-cyano-pyrrolidine compounds as USP30 inhibitors” (MISSION THERAPEUTICS LIMITED, priority 2015, dated 2019).

target: USP30 (Homo sapiens (Human), UniProt Q70CQ3); experiment: USP30 biochemical FP or FI IC50 assay; conditions: read-out: IC50 range
Summary of the method: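 Human USP30 preincubated 30 min at room temperature with compound (8-point series, 100 µM top final) in Tris pH 7.5, Tween 20, BSA, 5 mM β-mercaptoethanol, in duplicate. FP format: 50 nM TAMRA-peptide–isopeptide-ubiquitin substrate, ex 540/em 590. FI format: 100 nM ubiquitin-rhodamine 110, ex 487/em 535. Both read at 0 and after 2 h at room temperature.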

Chain of USP30 (Q70CQ3 57-517): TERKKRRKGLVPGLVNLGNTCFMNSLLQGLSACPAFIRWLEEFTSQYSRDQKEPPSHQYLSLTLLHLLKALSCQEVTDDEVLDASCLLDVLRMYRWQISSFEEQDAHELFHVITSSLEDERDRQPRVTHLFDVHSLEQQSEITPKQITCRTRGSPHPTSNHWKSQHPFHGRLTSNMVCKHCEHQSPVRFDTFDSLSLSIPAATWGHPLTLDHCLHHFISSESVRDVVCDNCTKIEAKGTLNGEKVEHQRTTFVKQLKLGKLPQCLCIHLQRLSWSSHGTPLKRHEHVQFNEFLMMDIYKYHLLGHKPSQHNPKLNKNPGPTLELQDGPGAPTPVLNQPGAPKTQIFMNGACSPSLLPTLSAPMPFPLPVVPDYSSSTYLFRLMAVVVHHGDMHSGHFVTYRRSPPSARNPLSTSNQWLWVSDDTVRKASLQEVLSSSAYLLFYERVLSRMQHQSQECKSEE

| Compound | IC50 |
| --- | --- |
| CN(C(=O)Nc1cn2ccccc2n1)[C@@H]1CCN(C#N)C1 [Example 50, (R)-1-(1-cyanopyrrolidin-3-yl)-3-(imidazo[1,2-a]pyridin-2-yl)-1-methylurea] | 0.1 to 1 µM |
| N#Cc1cc(F)c(NC(=O)N2CC[C@@H]3CN(C#N)C[C@@H]32)cc1F [Example 199, (3aR,6aR)-5-cyano-N-(4-cyano-2,5-difluorophenyl)hexahydropyrrolo[3,4-b]pyrrole-1(2H)-carboxamide] | 0.1 to 1 µM |
| N#CN1CC[C@@H](NC(=O)c2ncc(-c3ccccc3)cn2)C1 [Example 63, (R)—N-(1-cyanopyrrolidin-3-yl)-5-phenylpyrimidine-2-carboxamide] | 0.1 to 1 µM |
| N#CN1CC[C@@H](NC(=O)c2ncc(-c3ccc(F)cc3)cc2Cl)C1 [Example 123, (R)-3-chloro-N-(1-cyanopyrrolidin-3-yl)-5-(4-fluorophenyl)picolinamide] | < 0.1 µM |
| CN(C(=O)c1cn2cc(-c3cnn(C)c3)ccc2n1)[C@@H]1CCN(C#N)C1 [Example 156, (R)-N-(1-cyanopyrrolidin-3-yl)-N-methyl-6-(1-methyl-1H-pyrazol-4-yl)imidazo[, 2-a]pyridine-2-carboxamide] | 0.1 to 1 µM |
| Cn1cc(-c2ccc3c(c2)c(F)c(C(=O)N[C@@H]2CCN(C#N)C2)n3C)cn1 [Example 232, (R)-N-(1-cyanopyrrolidin-3-yl)-3-fluoro-1-methyl-5-(1-methyl-1H-pyrazol-4-yl)-1H-indole-2-carboxamide] | < 0.1 µM |
| Cc1cc(C(=O)N[C@@H]2CCN(C#N)C2)nn1C(C)c1ccccc1 (stereo partly drawn) [Example 150, N-((R)-1-cyanopyrrolidin-3-yl)-5-methyl-1-(1-phenylethyl)-1H-pyrazole-3-carboxamide] | 0.1 to 1 µM |
| N#CN1CC[C@@H](NC(=O)N2CCN(c3ccccc3)CC2)C1 [Example 135, (R)-N-(1-cyanopyrrolidin-3-yl)-4-phenylpiperazine-1-carboxamide] | 0.1 to 1 µM |
| Cc1nc2nccc-2c(-c2ccc(C(=O)N[C@@H]3CCN(C#N)C3)c(F)c2)[nH]1 [Example 184, (R)-N-(1-cyanopyrrolidin-3-yl)-2-fluoro-4-(2-methyl-3H-pyrrolo[2,3-d]pyrimidin-4-yl)benzamide] | < 0.1 µM |
| N#CN1C[C@H]2CCN(C(=O)c3ccc(-c4ccccc4)[nH]c3=O)[C@H]2C1 [Example 61, (3aR,6aR)-1-(2-oxo-6-phenyl-1,2-dihydropyridine-3-carbonyl)hexahydropyrrolo[3,4-b]pyrrole-5(1H)-carbonitrile] | 0.1 to 1 µM |
| COc1cc(C(=O)N2CC[C@@H]3CN(C#N)C[C@@H]32)ccc1-c1ccncc1Cl (racemic) [Example 59, rac-(3aR,6aR)-1-(4-(3-chloropyridin-4-yl)-3-methoxybenzoyl)hexahydropyrrolo[3,4-b]pyrrole-5(1H)-carbonitrile] | 0.1 to 1 µM |
| Cc1noc(C)c1-c1ccc2[nH]c(C(=O)N(C)[C@@H]3CCN(C#N)C3)nc2c1 [Example 158, (R)-N-(1-cyanopyrrolidin-3-yl)-6-(3,5-dimethylisoxazol-4-yl)-N-methyl-1H-benzo[d]imidazole-2-carboxamide] | 0.1 to 1 µM |
| CN(C(=O)N1CC(c2ccccc2)C1)[C@@H]1CCN(C#N)C1 [Example 189, (R)-N-(1-cyanopyrrolidin-3-yl)-N-methyl-3-phenylazetidine-1-carboxamide] | 0.1 to 1 µM |
| Cn1cc(-c2ccn3c(C(=O)N[C@@H]4CCN(C#N)C4)ncc3c2)cn1 [Example 233, (R)-N-(1-cyanopyrrolidin-3-yl)-7-(1-methyl-1H-pyrazol-4-yl)imidazo[1,5-a]pyridine-3-carboxamide] | 0.1 to 1 µM |
| Cn1cc(-c2cccc(C(=O)N[C@@H]3CCN(C#N)C3)c2F)cn1 [Example 104, (R)-N-(1-cyanopyrrolidin-3-yl)-2-fluoro-3-(1-methyl-1H-pyrazol-4-yl)benzamide] | 0.1 to 1 µM |
| N#CN1CCC(NC(=O)c2cc(-c3cccc(Cl)c3)no2)C1 (racemic) [Example 8, 3-(3-chlorophenyl)-N-(1-cyanopyrrolidin-3-yl)isoxazole-5-carboxamide] | < 0.1 µM |
| N#CN1C[C@H]2CCN(C(=O)c3cccc(-c4ccccc4)c3)[C@H]2C1 (racemic) [Example 51, rac-(3aR,6aR)-1-([1,1′-biphenyl]-3-carbonyl)hexahydropyrrolo[3,4-b]pyrrole-5(1H)-carbonitrile] | < 0.1 µM |

Second part, the compound after the results:

| IC50 | Compound |
| --- | --- |
| 0.1 to 1 µM | N#CN1C[C@H]2CCN(C(=O)c3ccc(F)c(-c4ccncc4)c3)[C@H]2C1 (racemic) [Example 57, rac-(3aR,6aR)-1-(4-fluoro-3-(pyridin-4-yl)benzoyl)hexahydropyrrolo[3,4-b]pyrrole-5(1H)-carbonitrile] |
| 0.1 to 1 µM | CN(C(=O)Nc1cccc(Cc2ccccc2)c1)C1CCN(C#N)C1 (stereo not drawn) [Example 256, 3-(3-benzylphenyl)-1-(1-cyanopyrrolidin-3-yl)-1-methylurea] |
| 0.1 to 1 µM | Cc1noc(C)c1-c1ccc(C(=O)NC2CCN(C#N)C2)cc1 (racemic) [Example 12, N-(1-cyanopyrrolidin-3-yl)-4-(3,5-dimethylisoxazol-4-yl)benzamide] |
| < 0.1 µM | COc1cccc(-c2cc(C(=O)N[C@@H]3CCN(C#N)C3)on2)c1 [Example 221, (R)-N-(1-cyanopyrrolidin-3-yl)-3-(3-methoxyphenyl)isoxazole-5-carboxamide] |
| 1 to 10 µM | CC(=O)N1CCCN(c2cc(C(=O)NC3CCN(C#N)C3)ccn2)CC1 (racemic) [Example 28, 2-(4-acetyl-1,4-diazepan-1-yl)-N-(1-cyanopyrrolidin-3-yl)isonicotinamide] |
| < 0.1 µM | N#CN1CC[C@@H](NC(=O)N2CC(c3ccc(Cl)cc3)C2)C1 [Example 191, (R)-3-(4-chlorophenyl)-N-(1-cyanopyrrolidin-3-yl)azetidine-1-carboxamide] |
| 0.1 to 1 µM | Cn1cc(-c2cc(C(=O)N3CC[C@@H]4CN(C#N)C[C@@H]43)ccc2F)cn1 (racemic) [Example 58, rac-(3aR,6aR)-1-(4-fluoro-3-(1-methyl-1H-pyrazol-4-yl)benzoyl)hexahydropyrrolo[3,4-b]pyrrole-5(1H)-carbonitrile] |
